Experimental data taken from patent US20070249545A1, “DIHYDROFOLATE REDUCTASE INHIBITION BY EPIGALLOCATECHIN GALLATE COMPOUNDS” (priority 2004, published 2007).
pKi: −log10 of the molar value.

Target: T1, recombinant human DHFR (rHDHFR) (Homo sapiens, UniProt P00374)
T1 sequence (P00374 1-187): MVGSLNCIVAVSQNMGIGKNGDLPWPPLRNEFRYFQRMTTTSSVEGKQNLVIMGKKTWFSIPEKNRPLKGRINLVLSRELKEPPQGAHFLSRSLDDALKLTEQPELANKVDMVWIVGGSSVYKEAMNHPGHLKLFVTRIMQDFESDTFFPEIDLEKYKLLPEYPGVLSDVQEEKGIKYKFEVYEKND
Test: Inhibition of human DHFR by tea catechins
Format: biochemical

## (−)-epigallocatechin gallate [EGCG]
  pKi: 5.70
  inhibition of rHDHFR activity: potent inhibitors
